Experimental data published in patent US20250188065A1, “LIGHT-CONTROLLED BIOORTHOGONAL TETRAZINE LIGATION” (The Regents of the University Of California, priority 2020, published 2025).
“Also recorded” adds a separate entry of the source.

What was measured:
[1] = Stability in 4-methylpiperidine/DMF solution (Fmoc deprotection conditions); assay type: physicochemical
Excerpt: Although tetrazine ligation is a widely used bioorthogonal tool, tetrazine-containing amino acid has been rarely explored in the solid-phase peptide synthesis (SPPS) due to dramatic degradations of tetrazines under the protection conditions, such as 4-methylpiperidine/DMF solution. Markedly, photocaged dihydrotetrazine 1a proves to be stable in the presence of 4-methylpiperidine/DMF solution, so that we were able to employ photocaged dihydrotetrazine-containing amino acid in SPPS and obtained the desired tetrazine-containing peptide in the late stage. Here we have synthesized unnatural amino acid photocaged dihydrotetrazine-lysine 1b (12 mg, 15 μmol) and obtained a five-amino-acid peptide 1c through practical SPPS in 49% yield (FIG. 3A). After irradiation of dihydrotetrazine-peptide 1c (10 μM) for 2 minutes in PBS at 37° C., tetrazine-peptide 2c could been readily achieved, which contains two common bioorthogonal groups, including an azido group and a tetrazine group.
Considering the stability of photocaged dihydrotetrazines, we asked if such groups could act as photoprotection moieties, masking latent tetrazines through harsh conditions that would normally be degradative. For example, in 4-methylpiperidine/DMF solution, 40% of tetrazine 2a degrades in 30 minutes. […] Therefore, we hypothesized that photocaged dihydrotetrazines would be tolerated during SPPS. […]

[2] = test system: Hep 3B human liver cancer cells; test: Cell viability after light-activated tetrazine prodrug therapy; assay type: cell-based; conditions: for influence on cell viability, agent alone: 1a 8 μM or TCO-Dox 3c 5.5 μM alone; for influence on cell viability, agent alone with irradiation: LED light 2 minutes, 1a 8 μM, TCO-Dox 3c 5.5 μM or side product 4c 5.5 μM alone
Description: FIGS. 5A-5B. Light-activated tetrazine prodrug therapy in Hep 3B cancer cells. FIG. 5A: Application of light-controlled tetrazine ligation to release the chemotherapeutic doxorubicin in the presence of living Hep 3B cancer cells. Dox, doxorubicin. FIG. 5B: Cell viability of Hep 3B cancer cells after treatments with photocaged dihydrotetrazine 1a (8 μM), TCO-Dox 3c (5.5 μM), side product 4c (5.5 μM), and Dox 5a (5.5 μM) with or without irradiation by LED light (405 nm, 18 W) for 2 minutes, followed by incubation at 37° C. for 24 hours. Error bars indicate standard error of mean (SEM), which are measured from 3 replicates. Statistically significant differences in cell viability between no treatment and other means are indicated: **P<0.01. ns, not significant.
Based on the positive dual activation results obtained from the in vitro experiments, we next tested if light-triggered tetrazine ligation enabled prodrug therapy could be carried out in the presence of live cancer cells (FIG. 5B). […] Loss of cell viability was similar to that observed when cells were directly treated with Dox […] (5.5 μM) under the same conditions.
Based on the positive results obtained, we tested whether light-triggered drug delivery could be carried out in the presence of living cancer cells (FIG. 5B). […] However, upon irradiation with LED light (405 nm, 18W) for 2 minutes, followed by incubation for 24 hours, a 75.1±3% reduction of cell viability was observed. The loss of cell viability was similar to that observed when cells were directly treated with Dox 5a (5.5 μM) under the same conditions.

[3] = Stability of photocaged dihydrotetrazine in aqueous solution / PBS / cell lysate without irradiation; assay type: physicochemical; conditions: absence of irradiation, 37° C.
Excerpt: We initiated our studies by synthesizing photocaged dihydrotetrazines 1. Ideally, photocaged dihydrotetrazine 1 should be stable in aqueous solution and the uncaged dihydrotetrazine should rapidly air oxidize to tetrazine 2. With these criteria in mind, we chose 3-(but-3-yn-1-yl)-6-phenyl-[…]1,2,4,5-tetrazine as a model building block, which we reduced to the corresponding dihydrotetrazine. We decided to include a terminal alkyne so that the photocaged dihydrotetrazine could be conjugated to functional molecules by copper-catalyzed azide-alkyne cycloaddition. For the photocleavable protecting group, we decided to utilize 1-(2-nitrophenyl)ethyl carbamate, due to its sensitivity to visible light, and its previous use in cellular studies. […] In the absence of irradiation, 1a is stable in aqueous solution at 37° C. with open air for over 4 days. Having photocaged dihydrotetrazines 1 in hand, we next characterized product formation after visible light triggered decaging (FIG. 2A). […] The resulting dihydrotetrazine intermediate is spontaneously oxidized by air, generating the desired 3-(but-3-yn-1-yl)-6-phenyl-1,2,4,5-tetrazine 2a.
A photocaged dihydrotetrazine should be stable in aqueous solution and the dihydrotetrazine should rapidly be oxidized to tetrazine by air. With this hypothesis in mind, we synthesized photocaged dihydrotetrazine 1a from 3-(but-3-yn-1-yl)-6-phenyl-1,2,4,5-tetrazine, which could be converted to the corresponding dihydrotetrazine using the reductant thiourea dioxide (FIG. 1B). 1-(2-Nitrophenyl)ethyl carbamate was investigated as the photocleavable functional group, due to its sensitivity to visible blue light (28) and biocompatibility (29). […] We analyzed light-triggered tetrazine formation from photocaged dihydrotetrazine 1a (FIGS. 2A-2B). […] We measured a second-order rate constant of 101±3 M^−1 s^−1 between 2a and a model strained dienophile, trans-4-cycloocten-1-ol (TCO-OH), by monitoring the disappearance of the characteristic tetrazine visible absorption at 521 nm under pseudo first-order conditions (13).

[4] = Second-order rate constant of tetrazine ligation with strained dienophile; conditions: with TCO-OH; disappearance of tetrazine absorption at 521 nm, pseudo first-order conditions
Excerpt: A photocaged dihydrotetrazine should be stable in aqueous solution and the dihydrotetrazine should rapidly be oxidized to tetrazine by air. With this hypothesis in mind, we synthesized photocaged dihydrotetrazine 1a from 3-(but-3-yn-1-yl)-6-phenyl-1,2,4,5-tetrazine, which could be converted to the corresponding dihydrotetrazine using the reductant thiourea dioxide (FIG. 1B). 1-(2-Nitrophenyl)ethyl carbamate was investigated as the photocleavable functional group, due to its sensitivity to visible blue light (28) and biocompatibility (29). After reacting the dihydrotetrazine intermediate with the selected photocleavable group, the desired product 1-(2-nitrophenyl)ethyl 6-(but-3-yn-1-yl)-3-phenyl-1,2,4,5-tetrazine-1(4H)-carboxylate photocaged dihydrotetrazine 1a was obtained. Nuclear magnetic resonance (NMR) studies confirmed that the secondary amine adjacent to the alkyl group of dihydrotetrazine 1a is functionalized. We analyzed light-triggered tetrazine formation from photocaged dihydrotetrazine 1a (FIGS. 2A-2B). […] We measured a second-order rate constant of 101±3 M^−1 s^−1 between 2a and a model strained dienophile, trans-4-cycloocten-1-ol (TCO-OH), by monitoring the disappearance of the characteristic tetrazine visible absorption at 521 nm under pseudo first-order conditions (13).

For `C#CCCC1=NNC(c2ccccc2)=NN1C(=O)OC(C)c1ccccc1[N+](=O)[O-]` (centres unmarked) [1a, 1-(2-nitrophenyl)ethyl 6-(but-3-yn-1-yl)-3-phenyl-1,2,4,5-tetrazine-1(4H)-carboxylate], the “stability in 4-methylpiperidine/DMF solution” value ([1]; 4-methylpiperidine/DMF solution) was “stable; also recorded: no detectable degradation”, the “influence on cell viability, agent alone” value [2] was “no influence on cell viability” and the “influence on cell viability, agent alone with irradiation” value [2] was “no influence on cell viability”. The “stable in aqueous solution (time)” value ([3]; open air) was “over 4 days”, the “decomposition after 4 days of incubation” value ([3]; PBS or cell lysate) was “less than 1%” and the “degradation over 1 day” value ([3]; PBS or cell lysate) was “not observed”.
For `COc1cccc2c1C(=O)c1c(O)c3c(c(O)c1C2=O)C[C@@](O)(C(=O)CO)C[C@@H]3O[C@H]1C[C@H](NC(=O)OC2/C=C/CCCCC2)[C@H](O)[C@H](C)O1` (some centres unmarked) [TCO-Dox 3c], the “influence on cell viability, agent alone” value [2] was “no influence on cell viability” and the “influence on cell viability, agent alone with irradiation” value [2] was “no influence on cell viability”.
For `COc1cccc2c1C(=O)c1c(O)c3c(c(O)c1C2=O)C[C@@](O)(C(=O)CO)C[C@@H]3O[C@H]1C[C@H](N)[C@H](O)[C@H](C)O1` [Dox 5a, doxorubicin, reference compound], the “loss of cell viability compared with irradiated 1a + TCO-Dox 3c mixture” value ([2]; direct treatment with Dox 5.5 μM, same conditions) was “similar”.
For `C#CCCc1nnc(-c2ccccc2)nn1` [2a, 3-(but-3-yn-1-yl)-6-phenyl-1,2,4,5-tetrazine], the “degradation in 4-methylpiperidine/DMF solution” value ([1]; 30 minutes) was 40% and the second-order rate constant [4] was 101 ± 3 M⁻¹ s⁻¹.
